Patent US6939569B1, “Medical device having anti-infective and contraceptive properties” (Oxibio, Inc., priority 1998, dated 2005)

Key:
C. albicans (ATCC 66027) = experiment: Microbicidal activity of iodate/iodide silicone tablet formulations in inoculated BHI, pH 4.0; assay type: cell-based; conditions: together with iodate threshold
Description: Experiments were performed to optimize formulations used in fabricating the inventive device formulated with silicone elastomer. […] The polymer was allowed to cure with dibutyl tin dilaurate catalyst additions, and then devices were prepared (0.6 cm diameter 0.3 mm thick) using “hole punch” tablets from the disc shaped device to test for microbicidal activity using C. albicans inoculated BHI. […] Tablets obtained from the fabricated device were suspended in the inoculum at 1 tablet/ml. At varying intervals, aliquots of the inoculum, incubated at 35° C. in air, were subcultured to sheep blood agar plates and incubated for an additional 24 hours at 35° C. in air to determine the effect of the varying formulations on the C. albicans inoculums.

| Compound | elemental iodine concentrations required to affect microbial killing (C. albicans) | critical media concentration of iodide necessary to effect C. albicans killing (C. albicans (ATCC 66027)) |
| --- | --- | --- |
| II [elemental iodine] | < 0.01% |  |
| I [iodide] |  | ≥ 0.5 mM |
